Measurements taken from patent US20150289513A1, “USE OF A COMPOUND COMPRISING A POLYFLUOROBENZYL MOIETY AGAINST INSECTICIDE-RESISTANT PESTS” (priority 2012, published 2015).

Test system: Anopheles funestus (metabolic-resistant strain FUMOZ-R)
Test: Glazed tile contact test, knock-down
Type: in vivo
Experimental: To produce a suitable preparation Transfluthrin was dissolved in acetone. The active compound solution was pipetted onto a glazed tile and, after drying, adult mosquitoes of the species: • Anopheles gambiae (target-site-resistant and metabolic-resistant strain: RSPH), • Anopheles gambiae (target-site-resitant and metabolic-resistant strain: Tiassalé), • Anopheles gambiae (tar et-site-resitant and metabolic-resistant strain: Akron), • Anopheles gambiae (target-site-resistant strain: VK7), and • Anopheles funestus (metabolic-resistant strain FUMOZ-R) were placed onto the treated tile (each strain was tested on separate tiles). The exposition time was 30 minutes.
0.25 hours, 0.5 hours, 1 hour, 2 hour, 3 hour, 4 hour and 24 hours after contact to the treated surface, the knock-down proportion of the test animals in % was determined. Here, 100% (effect) means that all mosquitoes have been killed; 0% (effect) means that none of the mosquitoes have been killed.
Similarly as outlined in example 2 for Transfluthrin, Metofluthrin efficacy was assessed against • Anopheles gambiae (target-site-resistant and metabolic-resistant strain: RSPH), • Anopheles funestus (metabolic-resistant strain FUMOZ-R), and • Culex quinquefasciatus (metabolic-resistant to DDT; strain P00), with the results shown in Tables 10 to 12. 0.25 hours, 0.5 hours, 1 hour, 2 hour, 3 hour, 4 hour and 24 hours after contact to the treated surface, the knock-down proportion of the test animals in % is depicted in Tables 10 to 12. 100% (effect) means that all mosquitoes have been killed; 0% (effect) means that none of the mosquitoes have been killed.
Similarly as outlined in example 2 for Transfluthrin, Metofluthrin efficacy was assessed against • Anopheles gambiae (target-site-resistant and metabolic-resistant strain: RSPH), • Anopheles funestus (metabolic-resistant strain FUMOZ-R), and with the results shown in Tables […]. 0.25 hours, 0.5 hours, 1 hour, 2 hour and 3 hours after contact to the treated surface, the knock-down proportion of the test animals in % is depicted in Tables 13 to 14. 100% (effect) means that all mosquitoes have been killed; 0% (effect) means that none of the mosquitoes have been killed.

Structure (SMILES): CC=CC1C(C(=O)OCc2c(F)c(F)c(COC)c(F)c2F)C1(C)C (stereo not shown) [Metofluthrin, 2,3,5,6-Tetrafluoro-4-(methoxymethyl)benzyl 2,2-dimethyl-3-(prop-1-en-1-yl)cyclopropanecarboxylate]
- Effect % (0.064 /ha, 0.25 h after contact): 0%
- Effect % (0.064 /ha, 0.5 h after contact): 0%
- Effect % (0.064 /ha, 1 h after contact): 0%
- Effect % (0.064 /ha, 2 h after contact): 0%
- Effect % (0.064 /ha, 3 h after contact): 0%
- Effect % (0.064 /ha, 4 h after contact): 0%
- Effect % (0.064 /ha, 24 h after contact): 20%
- Effect % (0.32 /ha, 0.25 h after contact): 0%
- Effect % (0.32 /ha, 0.5 h after contact): 0%
- Effect % (0.32 /ha, 1 h after contact): 0%
- Effect % (0.32 /ha, 2 h after contact): 0%
- Effect % (0.32 /ha, 3 h after contact): 0%
- Effect % (0.32 /ha, 4 h after contact): 0%
- Effect % (0.32 /ha, 24 h after contact): 10%
- Effect % (1.6 /ha, 0.25 h after contact): 90%
- Effect % (1.6 /ha, 0.5 h after contact): 100%
- Effect % (1.6 /ha, 1 h after contact): 100%
- Effect % (1.6 /ha, 2 h after contact): 80%
- Effect % (1.6 /ha, 3 h after contact): 40%
- Effect % (1.6 /ha, 4 h after contact): 40%
- Effect % (1.6 /ha, 24 h after contact): 70%
- Effect % (8 /ha, 0.25 h after contact): 100%
- Effect % (8 /ha, 0.5 h after contact): 100%
- Effect % (8 /ha, 1 h after contact): 100%
- Effect % (8 /ha, 2 h after contact): 100%
- Effect % (8 /ha, 3 h after contact): 100%
- Effect % (8 /ha, 4 h after contact): 100%
- Effect % (8 /ha, 24 h after contact): 100%
- Effect % (40 /ha, 0.25 h after contact): 100%
- Effect % (40 /ha, 0.5 h after contact): 100%
- Effect % (40 /ha, 1 h after contact): 100%
- Effect % (40 /ha, 2 h after contact): 100%
- Effect % (40 /ha, 3 h after contact): 100%
- Effect % (40 /ha, 4 h after contact): 100%
- Effect % (40 /ha, 24 h after contact): 100%
- Effect % (200 /ha, 0.25 h after contact): 100%
- Effect % (200 /ha, 0.5 h after contact): 100%
- Effect % (200 /ha, 1 h after contact): 100%
- Effect % (200 /ha, 2 h after contact): 100%
- Effect % (200 /ha, 3 h after contact): 100%
- Effect % (200 /ha, 4 h after contact): 100%
- Effect % (200 /ha, 24 h after contact): 100%
- Effect % (1000 /ha, 0.25 h after contact): 100%
- Effect % (1000 /ha, 0.5 h after contact): 100%
- Effect % (1000 /ha, 1 h after contact): 100%
- Effect % (1000 /ha, 2 h after contact): 100%
- Effect % (1000 /ha, 3 h after contact): 100%
- Effect % (1000 /ha, 4 h after contact): 100%
- Effect % (1000 /ha, 24 h after contact): 100%
